One molecule from US20180057505A1, “BICYCLIC HETEROARYL COMPOUNDS USEFUL AS INHIBITORS OF THE PAR-2 SIGNALING PATHWAY” (VERTEX PHARMACEUTICALS INCORPORATED, priority 2015, published 2018) can be followed below.

Data set [1] deals with T1, PAR2 (HT-29 cells) (Homo sapiens, UniProt P55085).
T1 construct: host or cells: HT-29
T1 sequence (P55085 26-397): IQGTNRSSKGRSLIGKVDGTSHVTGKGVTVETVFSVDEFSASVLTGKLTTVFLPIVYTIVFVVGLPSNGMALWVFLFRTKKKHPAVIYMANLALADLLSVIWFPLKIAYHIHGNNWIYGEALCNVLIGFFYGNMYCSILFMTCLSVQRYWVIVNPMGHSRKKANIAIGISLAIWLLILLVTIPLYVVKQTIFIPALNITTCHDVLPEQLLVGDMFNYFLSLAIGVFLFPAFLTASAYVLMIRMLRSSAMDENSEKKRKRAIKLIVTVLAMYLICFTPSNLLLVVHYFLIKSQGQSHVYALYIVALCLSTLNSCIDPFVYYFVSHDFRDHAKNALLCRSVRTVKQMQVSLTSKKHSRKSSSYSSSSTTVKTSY
Description: Ca FLIPR TETRA assay, ANTAGONIST mode, activator 8 μM SLIGKV. It counts as cell-based. To be noted: HT-29 cells; activator 8 μM SLIGKV; Method A: maximal concentration of antagonist 0.1, 1 or 2 μM. A digest of the protocol:
(§1)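 HT-29 cells in 1% FBS/McCoy's overnight, loaded with FLIPR Calcium 5 dye (45 min 37 °C, 15 min r.t.); compounds added and read for intrinsic Ca2+ activation, then after 30 min r.t. stimulated with fixed activator: 8 μM SLIGKV, 0.6 μM UTP, 1 U/mL thrombin or 3.1 U/mL trypsin (final).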

The test system of data set [2] is Thrombin-stimulated Ca2+ response in HT-29 cells. Description: Ca FLIPR TETRA assay, ANTAGONIST mode, activator 1 U/mL Thrombin. It counts as cell-based. To be noted: Homo sapiens; HT-29 cells, activator 1 U/mL Thrombin. A digest of the protocol: as §1
Data set [3] concerns UTP-stimulated Ca2+ response in HT-29 cells. As to the kind of experiment: Ca FLIPR TETRA assay, ANTAGONIST mode, activator 0.6 μM UTP. As to conditions: Homo sapiens; HT-29 cells, activator 0.6 μM UTP. Type of data set: cell-based. A digest of the protocol:
as §1

Data set [4] concerns carrageenan induced paw edema. Description: Rat carrageenan-induced paw edema model. It counts as in vivo. As to conditions: given 0.5-3 hour before carrageenan. The procedure:
Example 100: In Vivo Pharmacological Evaluation of PAR2 Pathway Inhibitors Subjects and Housing and Rat Carrageenan-Induced Paw Edema Model Male Sprague Dawley rats were housed in groups in a temperature controlled room and were acclimatized in the animal facility for at least three days prior to use. Experiments were performed during the light phase of the cycle. Animals have food and water ad libitum. Peripheral inflammation was induced by intra-plantar administration of 100 ul of a 1% w/volume (in saline) carrageenan solution under isoflurane anesthesia. The degree of swelling was assessed using the plethysmometer at 2-3-4-5-6 h after carrageenan injection. Test compound or vehicle (0.5% MC/0.1% SDS) was systemically administered at the indicated doses in a volume of 5 mL/kg either 0.5-3 hour before carrageenan challenge (Table 4).
For orientation: The carrageenan paw model is a standard test of acute inflammation.

The nature of data set [5]: In vivo rat pharmacokinetics experiments. How it is done:
Example 99: Protocol for Testing PAR2 Compounds In Vivo Rat Pharmacokinetics Experiments
Compounds delivered by intravenous route were formulated using a solution formulation consisting of 5% N-methylpyrrolidone 10% Vitamin E-TPGS and 85% water (v/v/) or a solution formulation consisting of 25% N-methylpyrrolidone 35% polyethylene glycol 400 and 40% water (v/v/). Intravenous formulations were administered by a bolus injection (over approximately 10 seconds) using a hypodermic needle attaches to a syringe (tail vein). The dose volume was varied from 1 to 2 mL/kg and the dose was varied from 0.5 to 1 mg/kg. Compounds delivered orally were formulated as a solution formulation consisting of 5% N-methylpyrrolidone 10% Vitamin E-TPGS and 85% water (v/v/) or as fine suspension using a cellulose derivative suspending agent with or without the addition of a wetting agent/surfactant. Milling of large particles was performed as needed to reduce particle size using focused electroacoustic milling, homogenization or low energy media milling. A spray-dried solid dispersion was prepared for key compounds using 1:1 combination with cellulose derivatives. Test compounds were administered orally by gavage using a gavage plastic needle attached to a syringe. The dose volume was varied from 5 to 10 mL/kg and the dose was varied from 1 to 600 mg/kg.
Rats were bled by venipuncture (jugular vein) and the samples were collected into tubes containing K3EDTA. The tubes were placed on wet ice until processed. The samples were centrifuged for approximately 10 minutes (at approximately 4° C.) within approximately 30 minutes of collection to prepare plasma or diluted in citrate buffer (1:3) and stored frozen (approximately −30° C.). Thawed plasma or whole blood samples were extracted by protein precipitation using an organic solvent followed by centrifugation. The supernatants were separated by high-performance liquid chromatography coupled to mass spectrometry detection. A calibration curve was prepared using reference standard compounds spiked into either blank plasma or whole blood matrices and extracted similarly to unknown samples. Pharmacokinetic parameters were calculated using non-compartmental analysis.

The target of data set [6] is T1, PAR2 (HT-29 cells). Description: Ca FLIPR TETRA assay, ANTAGONIST mode, activator 3.1 U/mL trypsin. Type of data set: cell-based. As to conditions: HT-29 cells; activator 3.1 U/mL trypsin; Method A: maximal concentration of antagonist 0.1, 1 or 2 μM. A digest of the protocol: as §1

With `CC(C)(C)c1cc(-c2ccc(Cl)c(F)c2)nc2cc(C(=O)N3CCN(c4cccc(C(=O)O)n4)CC3(C)C)oc12` [Example I-448, 6-[4-[7-tert-butyl-5-(4-chloro-3-fluoro-phenyl)furo[3,2-b]pyridine-2-carbonyl]-3,3-dimethyl-piperazin-1-yl]pyridine-2-carboxylic acid], the 50% inhibitory concentration (IC50) on PAR2 (HT-29 cells) [1] was determined as 0.0002 µM; in data set [2] it was 2 µM; in data set [3], 1.79 µM; at PAR2 (HT-29 cells) [6], 0.0003 µM. The “% inhibition” value in data set [4] (dose 0.8 mg/kg) came out at 11%; in data set [4] (dose 3 mg/kg), 18%; in data set [4] (dose 10 mg/kg) it was 30%; in data set [4] (dose 20 mg/kg), 21%. For the same molecule, in data set [5] (oral gavage, dose 1 to 600 mg/kg), the F came to 125%. The clearance in data set [5] (plasma, intravenous bolus 0.5 to 1 mg/kg, non-compartmental analysis, read-out: Clp) was found to be 0.558 L/h/kg. Moreover, the half-life in data set [5] (plasma, non-compartmental analysis, read-out: T ½ (converted)) is 5.2 h.

What is called IC50 is the concentration at which inhibition is half-maximal. As a reminder, the % inhibition is the share of the control response that was lost under treatment. A high value points to strong suppression.
